In publication PMC10926205 (iScience, 2024):
Entries after “also recorded” stand apart in the source; their conditions may differ. Like-named read-outs stand apart in the source and are kept apart here. Values belong to the molecule of their own block, whether it stands above or below them.

What was measured:
[1] = system: GREB1; experiment: GREB1 mRNA expression by qPCR in MCF-7; format: cell-based; conditions: MCF-7, 24 h; for GREB1 transcription (qPCR) compared to DMSO: E2 1nM, IBV 10nM, PHX, genistein, ±equol 100nM, neobavaisoflavone, bavachin, isobavachalcone, daidzein 1μM
[2] = target: T1, ERα (Homo sapiens, UniProt P03372); experiment: cell-based; format: cell-based; conditions: for selectivity for either estrogen receptor: ERα vs ERβ array EC50; for EC50 / PRL-ERα EC50 (nM): array formation (DNA binding), 1 h; for EC50 / PRL-ERα EC50 (nM) / ERα DNA binding and transcription at the 100nM dose: ERα-GFP:PRL-HeLa
T1 sequence (P03372 1-595): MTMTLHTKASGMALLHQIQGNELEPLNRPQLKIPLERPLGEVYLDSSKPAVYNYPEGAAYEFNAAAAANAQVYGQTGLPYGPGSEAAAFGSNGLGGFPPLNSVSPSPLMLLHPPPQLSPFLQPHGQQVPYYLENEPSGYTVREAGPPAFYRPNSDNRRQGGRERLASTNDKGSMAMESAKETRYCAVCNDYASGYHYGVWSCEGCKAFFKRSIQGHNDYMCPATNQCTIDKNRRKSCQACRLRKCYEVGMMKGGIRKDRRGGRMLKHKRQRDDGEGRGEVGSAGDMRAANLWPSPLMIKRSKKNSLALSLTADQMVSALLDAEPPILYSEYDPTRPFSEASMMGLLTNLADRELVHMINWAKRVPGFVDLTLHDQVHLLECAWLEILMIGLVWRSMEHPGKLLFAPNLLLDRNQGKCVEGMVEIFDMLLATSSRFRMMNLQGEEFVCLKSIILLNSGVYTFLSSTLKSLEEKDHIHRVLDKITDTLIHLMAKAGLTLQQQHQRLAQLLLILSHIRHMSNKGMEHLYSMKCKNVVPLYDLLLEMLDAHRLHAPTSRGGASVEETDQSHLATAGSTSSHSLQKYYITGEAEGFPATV

[3] = system: ERE-GFP in the heart valves; experiment: Transgenic zebrafish ERE-GFP reporter, heart valves; format: in vivo; conditions: highest nonlethal doses tested
[4] = system: MCF-7 cells; experiment: MCF-7 proliferation assay; format: cell-based; conditions: 120 h; for increase in cell number of MCF-7 cells: compared with DMSO
[5] = system: ERE-GFP reporter in the liver; experiment: Transgenic zebrafish ERE-GFP reporter, liver; format: in vivo; conditions: for ER signal (ERE-GFP) in the liver: highest nonlethal doses tested; for ERE-GFP activation in the zebrafish (liver or heart): nonlethal doses tested (<100μM)
[6] = system: GREB1; experiment: GREB1 smRNA FISH; format: cell-based; conditions: MCF-7, 24 h; E2 1nM, IBV 10 and 100nM, PHX 100nM
[7] = target: T2, ERβ (Homo sapiens, UniProt Q92731); experiment: cell-based; format: cell-based
[8] = system: ERα or ERβ; format: cell-based; conditions: flavonoid screen, cell line not stated
[9] = target: T2, ERβ; experiment: dsRed2 reporter RNA FISH in GFP-ERβ:PRL-HeLa; format: cell-based; conditions: highest dose tested (10μM)
[10] = target: T1, ERα; experiment: dsRed2 reporter RNA FISH in ERα-GFP:PRL-HeLa; format: cell-based
[11] = target: T3, progesterone receptor (GFP-PR) (Homo sapiens, UniProt P06401); experiment: GFP-PR PRL array biosensor cell line, array formation; format: cell-based; conditions: 100nM
T3 sequence (P06401 679-933 limits assumed): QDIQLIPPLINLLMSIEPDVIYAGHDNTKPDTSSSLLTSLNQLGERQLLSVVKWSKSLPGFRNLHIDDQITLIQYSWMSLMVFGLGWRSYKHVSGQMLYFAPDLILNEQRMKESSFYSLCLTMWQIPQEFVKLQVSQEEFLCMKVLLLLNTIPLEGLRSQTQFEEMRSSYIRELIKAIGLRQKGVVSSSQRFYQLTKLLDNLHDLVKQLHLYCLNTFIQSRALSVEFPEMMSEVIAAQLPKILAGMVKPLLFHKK

[12] = system: ERα; conditions: read-out: EC50 for displacement of E2 from ERα in rat uteri; cited from earlier work
[13] = array formation (DNA binding), GFP-ERβ:PRL-HeLa, 1 h
[14] = read-out: PRL-ERβ EC50, array formation (DNA binding), GFP-ERβ:PRL-HeLa, 1 h

T2 sequence (Q92731 whole entry): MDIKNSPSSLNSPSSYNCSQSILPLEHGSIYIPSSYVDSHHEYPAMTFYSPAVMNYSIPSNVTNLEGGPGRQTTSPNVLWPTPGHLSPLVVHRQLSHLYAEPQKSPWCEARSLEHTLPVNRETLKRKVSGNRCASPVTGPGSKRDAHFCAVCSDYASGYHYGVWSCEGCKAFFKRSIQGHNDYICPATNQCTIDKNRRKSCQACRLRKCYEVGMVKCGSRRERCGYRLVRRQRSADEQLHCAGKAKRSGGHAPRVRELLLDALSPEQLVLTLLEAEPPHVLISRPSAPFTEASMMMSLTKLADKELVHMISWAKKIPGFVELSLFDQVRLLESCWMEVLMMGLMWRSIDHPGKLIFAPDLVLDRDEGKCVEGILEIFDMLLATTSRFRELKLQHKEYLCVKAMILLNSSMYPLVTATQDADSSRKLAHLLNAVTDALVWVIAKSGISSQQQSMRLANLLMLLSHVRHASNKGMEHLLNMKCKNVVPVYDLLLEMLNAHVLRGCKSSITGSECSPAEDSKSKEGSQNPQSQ

selectivity for either estrogen receptor [2]: > 5 fold
SMILES: CC(C)=CCc1cc2c(cc1O)O[C@H](c1ccc(O)cc1)CC2=O [Bavachin]
GREB1 transcription (qPCR) compared to DMSO [1]: activation of GREB1 transcription

SMILES: O=c1c(-c2ccc(O)cc2)coc2cc(O)ccc12 [Daidzein]
GREB1 transcription (qPCR) compared to DMSO [1]: activation of GREB1 transcription

SMILES: C[C@]12CC[C@@H]3c4ccc(O)cc4CC[C@H]3[C@@H]1CC[C@@H]2O [E2, 17β-estradiol, reference compound]
ER signal (ERE-GFP) in the heart [3]: activate ER signal
GREB1 transcription (qPCR) compared to DMSO [1]: activation of GREB1 transcription
increase in cell number of MCF-7 cells [4]: 150%
ER signal (ERE-GFP) in the liver [5]: activate ER signal
induction of transcriptionally active GREB1 alleles [6]: significant induction
fraction of cells with a visible array [7]: 75%

SMILES: COc1cc(O)ccc1/C=C/C(=O)c1ccc(O)cc1 [Echinatin]
GREB1 gene expression compared to DMSO and E2 ([1]; compounds 1μM, E2 10nM): induced expression to the same level as E2
EC50 ([2]; PRL-ERα EC50 (nM)): 174 nM
PRL-ERα EC50 (nM) [2]: sub-micromolar
EC50 in MCF-7 growth assay [4]: sub-micromolar
ERE-GFP activation in the zebrafish (liver or heart) [5]: Neither isosakuranetin, echinatin, nor loureirin A activated the ERE-GFP
EC50 [7]: 69.5 nM
PRL-ERβ EC50 (nM) [7, 13]: sub-micromolar

SMILES: CN1CC[C@H](c2c(O)cc(O)c3c(=O)cc(-c4ccccc4Cl)oc23)[C@H](O)C1 [Flavopiridol (Alvocidib), Flavopiridol, reference compound]
transcriptional output (dsRed2 FISH) versus DMSO [8]: suppressed transcriptional output to a lower level than DMSO

SMILES: CN1CC[C@H](c2c(O)cc(O)c3c(=O)cc(-c4ccccc4Cl)oc23)[C@H](O)C1.Cl [Flavopiridol HCl, reference compound]
transcriptional output (dsRed2 FISH) versus DMSO [8]: suppressed transcriptional output to a lower level than DMSO

SMILES: O=c1c(-c2ccc(O)cc2)coc2cc(O)cc(O)c12 [Genistein]
GREB1 transcription (qPCR) compared to DMSO [1]: activation of GREB1 transcription

SMILES: COc1cc(-c2coc3cc(O)c(OC)c(O)c3c2=O)cc(O)c1OC [Irigenin]
transcriptional output (dsRed2 FISH) versus DMSO [8]: suppressed transcription

selectivity for either estrogen receptor [2]: > 5 fold
SMILES: CC(C)=CCc1c(O)ccc(C(=O)/C=C/c2ccc(O)cc2)c1O [Isobavachalcone]
GREB1 transcription (qPCR) compared to DMSO [1]: activation of GREB1 transcription

EC50 ([2]; PRL-ERα EC50 (nM)): 1.28 nM
activity in GFP-ERβ:PRL-HeLa cells at the 100nM dose ([7]; 100nM): also active
SMILES: CC(C)=CCc1c(O)ccc2c1O[C@H](c1ccc(O)cc1)CC2=O [Isobavachin]
ERα DNA binding and transcription at the 100nM dose [2]: induced ERα DNA binding and transcription

dsRed2 reporter gene activation in GFP-ERβ:PRL-HeLa [9]: did activate the dsRed2 reporter gene
EC50 ([2]; read-out: PRL-ERα EC50): 508 nM
RNA FISH expression in ERα-GFP:PRL-HeLa ([10]; highest dose tested (10μM)): did not activate RNA FISH expression
preference for ERβ compared to ERα ([7]; array EC50): 5 fold
EC50 [7, 14]: 92.1 nM
SMILES: C=CC(C)(C)c1cc(/C=C/C(=O)c2ccc(O)cc2)c(OC)cc1O [Licochalcone A]

SMILES: COc1ccc(CCC(=O)c2ccc(O)cc2)c(OC)c1 [Loureirin A]
PRL-ERα EC50 (nM) [2]: sub-micromolar
EC50 ([2]; read-out: PRL-ERα EC50): 50 nM
EC50 in MCF-7 growth assay [4]: sub-micromolar
MCF-7 cell proliferation, reaching the level of E2 [4]: not able to reach the level of E2
increase in cell number of MCF-7 cells [4]: 50%
ERE-GFP activation in the zebrafish (liver or heart) [5]: Neither isosakuranetin, echinatin, nor loureirin A activated the ERE-GFP
PRL-ERβ EC50 (nM) [7, 13]: sub-micromolar
EC50 [7, 14]: 76.2 nM

selectivity for either estrogen receptor [2]: > 5 fold
SMILES: CC(C)=CCc1cc(-c2coc3cc(O)ccc3c2=O)ccc1O [Neobavaisoflavone]
GREB1 transcription (qPCR) compared to DMSO [1]: activation of GREB1 transcription

SMILES: COc1ccc(-c2cc(=O)c3c(O)cc(O[C@@H]4O[C@H](CO)[C@@H](O)[C@H](O)[C@H]4O[C@@H]4O[C@@H](C)[C@H](O)[C@@H](O)[C@H]4O)cc3o2)cc1O [Neodiosmin]
ERα DNA binding and transcription at the 100nM dose [2]: induced ERα DNA binding and transcription

array formation in GFP-PR cell line (controls) [11]: successfully induced array formation
SMILES: CC(=O)[C@H]1CC[C@H]2[C@@H]3CCC4=CC(=O)CC[C@]4(C)[C@H]3CC[C@]12C [P4, progesterone]

gene transcription (dsRed2 RNA FISH) compared to DMSO ([10]; 10μM, 1 h, hits in ERα-GFP:PRL-HeLa): suppress gene transcription
SMILES: CN1CCC(c2c(O)cc(O)c3c(=O)cc(-c4ccccc4Cl)oc23)C1CO (stereo not shown) [P276-00]
transcriptional output (dsRed2 FISH) versus DMSO [8]: suppressed transcriptional output to a lower level than DMSO; also recorded: suppressed transcription

SMILES: Oc1ccc(C2=Cc3ccc(O)cc3OC2)cc1 [Phenoxodiol (Haginin E), Phenoxodiol]
ER signal (ERE-GFP) in the heart [3]: activate ER signal
GREB1 transcription (qPCR) compared to DMSO [1]: activation of GREB1 transcription
EC50 [12]: ~500 nM
ER signal (ERE-GFP) in the liver [5]: activate ER signal
activity in GFP-ERβ:PRL-HeLa cells at the 100nM dose [7]: also active

array formation in GFP-PR cell line (controls) [11]: successfully induced array formation
SMILES: CCC(=O)[C@@]1(C)CC[C@H]2[C@@H]3CCC4=CC(=O)CCC4=C3CC[C@@]21C [R5020]

activity in GFP-ERβ:PRL-HeLa cells at the 100nM dose ([7]; 100nM): also active
SMILES: Oc1ccc([C@H]2COc3cc(O)ccc3C2)cc1 [S-Equol]
ERα DNA binding and transcription at the 100nM dose [2]: induced ERα DNA binding and transcription
